Experimental data from paper PMC10224329, “Design, Synthesis, and Antiproliferative Activity of Benzopyran-4-One-Isoxazole Hybrid Compounds” (Molecules, 2023).

Key:
EGFR = molecular target: T1, EGFR (Homo sapiens, UniProt P00533); assay: Protein kinase assay (Reaction Biology); type: biochemical; settings: duplicate, 200 μM ATP, read-out: % Enzyme Activity (Relative to DMSO Controls) EGFR
T1 construct: purchased Reaction Biology Corporation
Method: (§1) Therefore, selected compound 5a was screened against several protein kinases to explore the potential of these hybrid compounds as kinase inhibitors. The screening of compound 5a was performed on a panel of 9 kinases, viz., ABL1, c-Kit, c-Src, CDK2/cyclin A1, CSK, EGFR, mTOR/FRAP1, p38a/MAPK14, PKCa, and PI3K, at a dose of 20 μM. The respective positive controls were used for each kinase, and the kinase reaction was performed at 200 μM ATP concentration for all the kinases except for PI3K, which was performed at 10 µM ATP (Table 2). […] It appeared that compound 5a containing a 3-position substitution with an isoxazole ring and a 4-position with a carbonyl group has a detrimental effect on kinase inhibition. Previously 3-substituted benzopyran compound with a short alkyl chain of urea (NH-CO-NH-Et/Me/iPr) was reported with Abl kinase inhibitory activity in the range of 4–27 μM [36]. […] Due to prominent antiproliferative activity, these compounds may have some other targets for anticancer activity.
(§2) Compound 5a was tested at a single dose of 20 μM against 9 kinases, viz., Abl1, c-Kit, c-Src, CDK2/cyclin A1, CSK, EGFR, mTOR/FRAP1, p38a/MAPK14, PKCa, and PI3K using our previously reported protocol in duplicate by Reaction Biology Corporation. The respective positive controls, e.g., staurosporine for all the kinases, except SB202190 for P38a/MAP14 and P1-103 for mTOR/FRAP1, were used, and the kinase reaction was performed at 200 μM ATP concentration for all the kinases except for PI3K, which was performed at 10 µM ATP.

PI3K (p110a/p65a) = molecular target: T2, PI3K (p110a/p65a) (Homo sapiens, UniProt P42336); assay: Protein kinase assay (Reaction Biology); type: biochemical; settings: duplicate, 10 µM ATP, read-out: % Enzyme Activity (Relative to DMSO Controls) PI3K (p110a/p65a)
T2 construct: purchased Reaction Biology Corporation
Method: as §1, §2

ABL1 = molecular target: T3, ABL1 (Homo sapiens, UniProt P00519); assay: Protein kinase assay (Reaction Biology); type: biochemical; settings: duplicate, 200 μM ATP, read-out: % Enzyme Activity (Relative to DMSO Controls) ABL1
T3 construct: purchased Reaction Biology Corporation
Method: as §1, §2

c-Src = molecular target: T4, c-Src (Homo sapiens, UniProt P12931); assay: Protein kinase assay (Reaction Biology); type: biochemical; settings: duplicate, 200 μM ATP, read-out: % Enzyme Activity (Relative to DMSO Controls) c-Src
T4 construct: purchased Reaction Biology Corporation
Method: as §1, §2

c-Kit = molecular target: T5, c-Kit (Homo sapiens, UniProt P10721); assay: Protein kinase assay (Reaction Biology); type: biochemical; settings: duplicate, 200 μM ATP, read-out: % Enzyme Activity (Relative to DMSO Controls) c-Kit
T5 construct: purchased Reaction Biology Corporation
Method: as §1, §2

CDK2/cyclin A1 = molecular target: T6, CDK2/cyclin A1 (Homo sapiens, UniProt P24941); assay: Protein kinase assay (Reaction Biology); type: biochemical; settings: duplicate, 200 μM ATP, read-out: % Enzyme Activity (Relative to DMSO Controls) CDK2/cyclin A1
T6 construct: purchased Reaction Biology Corporation
Method: as §1, §2

PKCa = molecular target: T7, PKCa (Homo sapiens, UniProt P17252); assay: Protein kinase assay (Reaction Biology); type: biochemical; settings: duplicate, 200 μM ATP, read-out: % Enzyme Activity (Relative to DMSO Controls) PKCa
T7 construct: purchased Reaction Biology Corporation
Method: as §1, §2

mTOR/FRAP1 = molecular target: T8, mTOR/FRAP1 (Homo sapiens, UniProt P42345); assay: Protein kinase assay (Reaction Biology); type: biochemical; settings: duplicate, 200 μM ATP, read-out: % Enzyme Activity (Relative to DMSO Controls) mTOR/FRAP1
T8 construct: purchased Reaction Biology Corporation
Method: as §1, §2

[1] = tested on: panel of cancer cell lines (CCRF-CEM, SKOV-3, MDA-MB-231, PC-3, DU-145, iSLK); assay: MTS cell viability assay, summary over the cancer cell line panel; type: cell-based; settings: Homo sapiens
Method: All the 14 hybrid compounds synthesized via Scheme 1, along with the intermediates and starting compounds, were tested in vitro for their cytotoxicity against a panel of 6 human cancer cell lines. This panel involved human leukemia carcinoma (CCRF-CEM), human ovarian adenocarcinoma (SKOV-3), human breast tumor (MDA-MB-231), human prostate cancer (PC-3), androgen-independent human prostate cancer (DU-145), and human renal carcinoma (iSLK) cell lines. The compounds were tested at a concentration of 25 μM for incubation periods of 24 and 72 h. Standard anticancer drug doxorubicin at a concentration of 5 μM and DMSO were used as controls in all the cell assays. The antiproliferative profile of benzopyran-4-one-isoxazole conjugates is shown in Figure 2 (cf. Supplementary Materials for the data obtained for intermediates and starting materials Figure S28.1–S28.6, page no. 71–76).
Cell viability assays were performed using the MTS protocol. The in vitro cytotoxicity of the conjugates was evaluated using six human cancer cell lines, one human normal kidney cell line, and one mammalian normal kidney cell line, which included human leukemia carcinoma cell lines (CCRF-CEM), human ovarian adenocarcinoma cell lines (SKOV-3), human breast tumor cell lines (MDA-MB-231), human prostate cancer cell lines (PC-3), androgen-independent human prostate cancer cell lines (DU-145), human renal carcinoma (iSLK), human embryonic kidney cell lines (HEK-293), and normal mammalian kidney cell line (LLCPK) to determine the toxicity of the synthesized conjugates. CCRF-CEM cells were seeded at 50,000 cells in 0.1 mL per well in 96-well plates, and in the case of SKOV-3, MDA-MB-231, PC-3, DU-145, HEK-293, and LLCPK cell lines, the cells were seeded at 5000 cells in 0.1 mL per well in 96-well plates. The CCRF-CEM cells were seeded in RPMI-1640 media containing 2mM L-glutamine, 1.5 g/L sodium bicarbonate, supplemented with fetal bovine serum (FBS) 10% media, SKOV-3, MDA-MB-231, and LLCPK cells were seeded in MEME media with Earle’s salts and sodium bicarbonate, without L-glutamine, supplemented with fetal bovine serum (FBS) 10%, PC-3 cells were seeded in DMEM:F-12 containing 1:1 mixture with L-glutamine with HEPES, supplemented with fetal bovine serum (FBS) 10%, and DU-145 and HEK-293 cells were seeded in DMEM containing 4500 mg/L glucose, L-glutamine, and sodium bicarbonate, without sodium pyruvate, supplemented with FBS (10%), 24 h prior to the experiment. The compounds at a final concentration of 25 µM (higher concentration stock solution prepared in DMSO) were added to each well in triplicate and incubated for 24 and 72 h at 37 °C in a humidified atmosphere (95% air and 5% CO2). The cell viability was then determined by measuring the absorbance of the formazan product at 490 nm using a microplate reader using a SpectraMax M2 microplate spectrophotometer, Molecular Devices, San Jose, CA, USA. The percentage of cell survival was calculated as [(OD value of cells treated with the test mixture of compounds) − (OD value of culture medium)]/[(OD value of control cells) − (OD value of culture medium)] × 100%. IC50 values of compounds were calculated using non-linear regression analysis in GraphPad Prism (Boston, MA, USA).

T3 sequence (P00519 whole entry): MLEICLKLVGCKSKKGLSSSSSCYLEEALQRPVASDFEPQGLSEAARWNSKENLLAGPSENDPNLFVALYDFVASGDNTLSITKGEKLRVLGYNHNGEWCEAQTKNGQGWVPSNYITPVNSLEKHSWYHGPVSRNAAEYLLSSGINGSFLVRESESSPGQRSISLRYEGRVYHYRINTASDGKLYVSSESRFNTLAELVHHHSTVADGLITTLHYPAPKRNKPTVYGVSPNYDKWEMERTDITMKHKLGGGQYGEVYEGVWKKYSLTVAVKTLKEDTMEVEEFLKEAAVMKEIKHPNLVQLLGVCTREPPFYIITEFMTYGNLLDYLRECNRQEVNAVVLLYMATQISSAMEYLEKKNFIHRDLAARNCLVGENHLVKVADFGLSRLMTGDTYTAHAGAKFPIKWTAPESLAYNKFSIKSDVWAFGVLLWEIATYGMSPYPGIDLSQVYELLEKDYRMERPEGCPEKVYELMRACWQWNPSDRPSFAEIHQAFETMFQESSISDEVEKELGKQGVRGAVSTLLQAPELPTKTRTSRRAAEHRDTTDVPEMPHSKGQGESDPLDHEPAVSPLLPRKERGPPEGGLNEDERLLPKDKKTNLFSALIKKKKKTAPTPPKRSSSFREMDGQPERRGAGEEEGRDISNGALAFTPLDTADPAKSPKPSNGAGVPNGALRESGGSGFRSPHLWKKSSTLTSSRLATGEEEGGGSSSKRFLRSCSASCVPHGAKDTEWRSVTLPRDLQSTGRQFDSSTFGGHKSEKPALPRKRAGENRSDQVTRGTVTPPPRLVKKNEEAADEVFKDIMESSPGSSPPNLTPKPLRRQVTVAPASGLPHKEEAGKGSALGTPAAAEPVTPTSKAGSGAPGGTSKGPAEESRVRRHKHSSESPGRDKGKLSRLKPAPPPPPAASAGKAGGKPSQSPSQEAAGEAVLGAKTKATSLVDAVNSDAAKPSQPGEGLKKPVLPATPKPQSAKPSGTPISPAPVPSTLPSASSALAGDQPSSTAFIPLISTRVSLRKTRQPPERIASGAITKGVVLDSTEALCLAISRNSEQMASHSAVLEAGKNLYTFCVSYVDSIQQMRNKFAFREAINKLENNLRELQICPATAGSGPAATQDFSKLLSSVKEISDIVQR
T2 sequence (P42336 whole entry): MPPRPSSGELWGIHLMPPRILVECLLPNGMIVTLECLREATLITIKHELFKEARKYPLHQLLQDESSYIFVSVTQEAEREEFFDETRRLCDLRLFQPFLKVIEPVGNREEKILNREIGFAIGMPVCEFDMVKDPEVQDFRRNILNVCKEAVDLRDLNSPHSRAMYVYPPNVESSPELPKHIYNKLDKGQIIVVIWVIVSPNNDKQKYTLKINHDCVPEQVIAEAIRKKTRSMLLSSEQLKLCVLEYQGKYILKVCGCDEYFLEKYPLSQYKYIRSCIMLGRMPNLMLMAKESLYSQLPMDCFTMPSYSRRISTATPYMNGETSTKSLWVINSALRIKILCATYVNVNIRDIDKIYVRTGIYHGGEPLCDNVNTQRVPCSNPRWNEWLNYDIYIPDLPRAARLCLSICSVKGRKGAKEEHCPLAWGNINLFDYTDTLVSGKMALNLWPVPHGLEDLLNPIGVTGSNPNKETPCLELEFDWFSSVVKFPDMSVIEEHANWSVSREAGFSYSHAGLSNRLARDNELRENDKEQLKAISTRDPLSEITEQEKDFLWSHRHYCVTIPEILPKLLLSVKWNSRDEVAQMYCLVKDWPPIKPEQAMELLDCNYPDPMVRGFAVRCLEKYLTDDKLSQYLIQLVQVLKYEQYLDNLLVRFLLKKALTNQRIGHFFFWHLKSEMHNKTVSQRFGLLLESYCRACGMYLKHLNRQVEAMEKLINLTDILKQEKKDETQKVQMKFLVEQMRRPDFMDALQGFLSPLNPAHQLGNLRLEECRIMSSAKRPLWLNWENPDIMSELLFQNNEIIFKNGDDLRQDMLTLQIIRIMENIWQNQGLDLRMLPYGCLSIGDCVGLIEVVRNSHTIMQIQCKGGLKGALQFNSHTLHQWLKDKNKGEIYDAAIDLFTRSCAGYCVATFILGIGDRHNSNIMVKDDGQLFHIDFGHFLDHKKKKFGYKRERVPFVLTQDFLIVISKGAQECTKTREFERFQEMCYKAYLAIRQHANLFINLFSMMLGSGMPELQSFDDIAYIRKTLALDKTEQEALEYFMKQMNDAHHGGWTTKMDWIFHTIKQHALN
T1 sequence (P00533 25-1210): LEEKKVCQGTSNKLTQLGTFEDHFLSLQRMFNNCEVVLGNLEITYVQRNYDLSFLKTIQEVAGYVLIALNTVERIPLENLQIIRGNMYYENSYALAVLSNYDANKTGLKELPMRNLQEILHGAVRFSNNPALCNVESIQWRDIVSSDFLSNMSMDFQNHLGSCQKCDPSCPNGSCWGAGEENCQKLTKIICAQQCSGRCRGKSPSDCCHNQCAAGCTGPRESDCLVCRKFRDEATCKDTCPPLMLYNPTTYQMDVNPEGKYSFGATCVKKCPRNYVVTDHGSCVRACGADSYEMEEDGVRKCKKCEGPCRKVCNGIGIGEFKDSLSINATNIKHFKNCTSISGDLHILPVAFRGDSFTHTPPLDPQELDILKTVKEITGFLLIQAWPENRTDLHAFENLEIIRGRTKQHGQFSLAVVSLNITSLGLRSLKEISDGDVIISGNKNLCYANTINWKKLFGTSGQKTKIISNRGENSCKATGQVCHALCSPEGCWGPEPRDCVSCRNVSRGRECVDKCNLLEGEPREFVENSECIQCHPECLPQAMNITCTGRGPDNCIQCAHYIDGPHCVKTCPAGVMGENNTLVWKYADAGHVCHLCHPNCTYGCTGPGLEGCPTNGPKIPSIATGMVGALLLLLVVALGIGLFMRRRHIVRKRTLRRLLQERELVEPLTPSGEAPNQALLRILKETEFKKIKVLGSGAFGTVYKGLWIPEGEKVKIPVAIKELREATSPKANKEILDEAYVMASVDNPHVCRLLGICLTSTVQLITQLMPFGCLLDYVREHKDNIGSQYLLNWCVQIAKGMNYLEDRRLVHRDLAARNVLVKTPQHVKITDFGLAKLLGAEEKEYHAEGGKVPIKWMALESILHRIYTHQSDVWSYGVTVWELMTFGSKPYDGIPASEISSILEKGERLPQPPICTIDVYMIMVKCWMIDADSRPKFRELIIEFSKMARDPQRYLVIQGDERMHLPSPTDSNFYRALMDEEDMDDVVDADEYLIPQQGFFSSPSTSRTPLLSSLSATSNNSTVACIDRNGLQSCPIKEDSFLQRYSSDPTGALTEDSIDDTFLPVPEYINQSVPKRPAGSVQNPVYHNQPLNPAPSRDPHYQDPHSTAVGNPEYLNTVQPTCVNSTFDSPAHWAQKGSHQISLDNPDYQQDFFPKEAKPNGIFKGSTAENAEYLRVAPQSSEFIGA
T4 sequence (P12931 whole entry): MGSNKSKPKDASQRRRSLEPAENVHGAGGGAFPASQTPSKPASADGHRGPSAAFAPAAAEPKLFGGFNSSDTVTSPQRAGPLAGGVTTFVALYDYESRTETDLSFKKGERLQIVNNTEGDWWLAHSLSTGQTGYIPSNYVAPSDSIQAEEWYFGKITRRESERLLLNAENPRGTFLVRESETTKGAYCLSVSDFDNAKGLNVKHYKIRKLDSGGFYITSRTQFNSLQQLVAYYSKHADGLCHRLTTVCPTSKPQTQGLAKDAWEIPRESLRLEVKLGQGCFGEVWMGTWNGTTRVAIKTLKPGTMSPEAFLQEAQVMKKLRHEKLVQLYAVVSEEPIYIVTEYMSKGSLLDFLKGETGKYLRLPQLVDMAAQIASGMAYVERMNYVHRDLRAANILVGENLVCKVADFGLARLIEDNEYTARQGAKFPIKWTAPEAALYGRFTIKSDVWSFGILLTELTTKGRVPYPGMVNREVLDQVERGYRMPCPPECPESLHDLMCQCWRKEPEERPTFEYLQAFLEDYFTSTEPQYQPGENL

Cc1noc(C)c1C(=O)OCc1coc2ccccc2c1=O [Compound 5a, (4-Oxo-4H-1-benzopyran-3-yl)methyl 3,5-dimethylisoxazole-4-carboxylate]
remaining activity at 20 µM (EGFR): 99.8% | remaining activity at 20 µM (PI3K (p110a/p65a)): 110% | remaining activity at 20 µM (ABL1): 96.9% | remaining activity at 20 µM (c-Src): 113% | remaining activity at 20 µM (c-Kit): 95.3% | remaining activity at 20 µM (CDK2/cyclin A1): 105% | remaining activity at 20 µM (PKCa): 103% | remaining activity at 20 µM (mTOR/FRAP1): 112% | inhibition at 25 µM ([1]; 25 μM, 72 h, range over six cancer cell lines, read-out: percentage of inhibition (range over the cancer cell lines)): 44 to 81% | IC50 ([1]; range over CCRF-CEM, MDA-MB-231, PC3, DU-145, read-out: IC50 against all the cancer cell lines (range)): 5.6 to 17.8 µM
